In brackets after ≈: the same amount, converted by molar mass. Entries after “also recorded” stand apart in the source; their conditions may differ. Where two headings read alike, the source gives them in different places.
Experiments:
H. somni = assay: In-vitro MIC model (CLSI broth micro-dilution)
Lipophilicity (logP) = assay type: physicochemical
Excerpt: The lipophilicity of an organic compound can be described by a partition coefficient, log P, which can be defined as the ratio of the concentration of the unionized compound at equilibrium between organic and aqueous phases. Generally speaking, more lipophilic compounds are less soluble in aqueous media. A negative value for log P means the compound has a higher affinity for the aqueous phase (hydrophilic); when log P=0 the compound is equally partitioned between the lipid and aqueous phases; a positive value for log P denotes a higher concentration in the lipid phase (lipophilic). Lipophilicity is a major determining factor in a compound's absorption, distribution in the body, penetration across vital membranes and biological barriers, metabolism and excretion. The compounds of the invention are lipophilic (log P˜0.503 to 5.96) which aid in their transport and absorption into respiratory tissues, e.g., lungs.

[1] = test system: bovine alveolar macrophages; assay: Phospholipidosis assay (HCS LipidTox, Incucyte); assay type: cell-based; conditions: Bos taurus, Macrophage
Excerpt: The second immunomodulation in vitro assay evaluated the potential for phospholipidosis with the compounds of the invention in bovine alveolar macrophages. This assay is utilized to determine cellular uptake of the compounds of the invention in relevant bovine and murine cell types. This assay utilized Invitrogen's commercially available HCS LipidTox detection kit with an Incucyte real time fluorescence reader to observe variations in EC50 and phospholipidosis profiles based on compound concentrations. Murine intraperitoneal macrophages were also used in the same assay to evaluate species variability for potential correlation with mouse efficacy results. The combination of the bovine whole blood assay and phospholipidosis assays enabled rank ordering for progression into in vivo testing in the murine challenge model.

P. multocida = assay: In-vitro MIC model (CLSI broth micro-dilution); conditions: Pasteurella multocida
CD163 = CD163 expression by flow cytometry, blood of treated/challenged cattle; conditions: blood macrophages
IL-1β = assay: LPS-stimulated whole bovine blood assay, MSD cytokine detection; assay type: cell-based; conditions: for IC50: Bos taurus, LPS-stimulated whole bovine blood, * = enhanced response at concentration indicating potential cytotoxicity; for IL-1β OS of LPS: overstimulation of IL-1β, LPS-stimulated bovine whole blood
M. haemolytica = assay: In-vitro MIC model (CLSI broth micro-dilution); conditions: Mannheimia haemolytica
P. multocida 46572 = assay: In vivo mouse lung infection challenge model (murine efficacy); set-up: species or system CD-1 female mice; conditions: for Mouse Murine Percent Survival: 20 mg/kg subcutaneous, harmonized against the comparative vehicle survival rate; for clinical efficacy in murine P. multocida infection: airway tissues collected longitudinally for transcriptomic analysis
Outline: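 CD-1 female mice challenged intranasally with P. multocida 46572 at mid-log phase (target 5×10^2 CFU/mouse). Compounds given subcutaneously at 20 mg/kg in buffered (~pH 5.4) propylene glycol/monothioglycerol/water. Mortality observed Days 1–10, analysed by generalized mixed model; survival harmonized against vehicle survival rate.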

IL-6 = assay: Plasma IL-6 biomarker in bovine M. haemolytica challenge; conditions: for IL-6 levels (plasma) in bovine M. haemolytica challenge: in vivo
[2] = test system: M. haemolytica (OSU-012103-BHI); conditions: for Back Transform LS % Lung with Lesions / Range % Lung with Lesions: sc
[3] = test system: BRD pathogens, M. haemolytica and P. multocida; assay: MIC screening panel of BRD pathogens (antibacterial / non-antibacterial)
[4] = 32 hours post challenge, dosed 24 hours prior to challenge
[5] = read-out: antibacterial / non-antibacterial (MIC for the BRD pathogens)
[6] = read-out: MIC to the M. haemolytica challenge strain

| Structure (SMILES) | MIC (H. somni; Histophilus somni) | logP (Lipophilicity (logP)) | EC50 [1] | MIC (P. multocida) | CD163 expression in treated cattle (CD163) | IC50 (IL-1β) | IL-1β OS of LPS (IL-1β) | MIC (M. haemolytica) | Mouse Murine Percent Survival (P. multocida 46572; P. multocida challenge) | clinical efficacy in murine P. multocida infection (P. multocida 46572) | IL-6 levels (plasma) in bovine M. haemolytica challenge (IL-6) | Back Transform LS % Lung with Lesions ([2]; 0.5 mg/kg) | Range % Lung with Lesions ([2]; 0.5 mg/kg) | Back Transform LS % Lung with Lesions ([2]; 2.5 mg/kg) | Range % Lung with Lesions ([2]; 2.5 mg/kg) | in vitro activity vs. clinically relevant pathogenic strains for BRD (M. haemolytica and P. multocida) [3] | MIC [3, 5] | MIC (M. haemolytica; [6]) | other results |
| --- | --- | --- | --- | --- | --- | --- | --- | --- | --- | --- | --- | --- | --- | --- | --- | --- | --- | --- | --- |
| CCCNC[C@]1(O)[C@H](C)O[C@@H](O[C@H]2[C@H](C)[C@@H](O[C@@H]3O[C@H](C)C[C@H](N(C)C(=O)N(C)c4ccccc4)[C@H]3O)[C@](C)(O)C[C@@H](C)CN[C@H](C)[C@@H](O)[C@](C)(O)[C@@H](CC)OC(=O)[C@@H]2C)C[C@@]1(C)OC [Example H-11, 1-((2S,3R,4S,6R)-2-(((2R,3S,4R,5R,8R,10R,11R,12S,13S,14R)-2-ethyl-3,4,10-trihydroxy-13-(((2R,4R,5S,6S)-5-hydroxy-4-methoxy-4,6-dimethyl-5-((propylamino)methyl)tetrahydro-2H-pyran-2-yl)oxy)-3,5,8,10,12,14-hexamethyl-15-oxo-1-oxa-6-azacyclopentadecan-11-yl)oxy)-3-hydroxy-6-methyltetrahydro-2H-pyran-4-yl)-1,3-dimethyl-3-phenylurea] | > 64 µg/mL | 3.2 | 4 µM | > 64 µg/mL | reduced; also recorded: downregulated | 36 µM | 32 µM | > 64 µg/mL | 36% | clinically efficacious | reduced; also recorded: downregulated | 28% | 0 to 68% | 21% | 2 to 70% | lack of in vitro activity | > 64 µg/mL | – | expression of IL-1β, LPS stimulated whole bovine blood (IL-1β; 4 independent studies with multiple blood donors, FIG. 4): dose dependent reduction; reduction in IL-6 levels (geometric mean) (IL-6; [4]): 51%; reduction in IL-6 levels (median value) (IL-6; [4]): 43% |
| CCCNC[C@]1(O)[C@H](C)O[C@@H](O[C@H]2[C@H](C)[C@@H](O[C@@H]3O[C@H](C)C[C@H](N(C)C(=O)Nc4ccccc4)[C@H]3O)[C@](C)(O)C[C@@H](C)CN[C@H](C)[C@@H](O)[C@](C)(O)[C@@H](CC)OC(=O)[C@@H]2C)C[C@@]1(C)OC [Example H-91, 1-((2S,3R,4S,6R)-2-(((2R,3S,4R,5R,8R,10R,11R,12S,13S,14R)-2-ethyl-3,4,10-trihydroxy-13-(((2R,4R,5S,6S)-5-hydroxy-4-methoxy-4,6-dimethyl-5-((propylamino)methyl)tetrahydro-2H-pyran-2-yl)oxy)-3,5,8,10,12,14-hexamethyl-15-oxo-1-oxa-6-azacyclopentadecan-11-yl)oxy)-3-hydroxy-6-methyltetrahydro-2H-pyran-4-yl)-1-methyl-3-phenylurea] | > 64 µg/mL | 3.1 | 88 µM | > 256 µg/mL | suppressed; also recorded: reduction; also recorded: downregulated | 103 µM | 130 µM | > 256 µg/mL | 38% | clinically efficacious | reduction; also recorded: downregulated | 8% | 0 to 39% | 9% | 0 to 58% | lack of in vitro activity | > 64 µg/mL | > 256 µg/mL | MIC (M. haemolytica; read-out: MIC against all M. haemolytica target pathogens tested): > 256 µg/mL |
| CCCNC[C@]1(O)[C@H](C)O[C@@H](O[C@H]2[C@H](C)[C@@H](O[C@@H]3O[C@H](C)C[C@H](NC)[C@H]3O)[C@](C)(O)C[C@@H](C)CN[C@H](C)[C@@H](O)[C@](C)(O)[C@@H](CC)OC(=O)[C@@H]2C)C[C@@]1(C)OC [Example M9, (2R,3S,4R,5R,8R,10R,11R,12S,13S,14R)-2-ethyl-3,4,10-trihydroxy-13-(((2R,4R,5S,6S)-5-hydroxy-4-methoxy-4,6-dimethyl-5-((propylamino)methyl)-tetrahydro-2H-pyran-2-yl)oxy)-11-(((2S,3R,4S,6R)-3-hydroxy-6-methyl-4-(methylamino)tetrahydro-2H-pyran-2-yl)oxy)-3,5,8,10,12,14-hexamethyl-1-oxa-6-azacyclopentadecan-15-one, reference compound] | – | 2.2 | 3740 µM | – | suppressed; also recorded: mitigates; also recorded: downregulated | ~250 µM | – | – | – | clinically efficacious | significantly reduced; also recorded: downregulated | – | – | – | – | – | < 64 µg/mL | > 64 µg/mL | MIC Range (H. somni; H. somni (25) lung isolates at necropsy, natural BRD study): 8 to 64 µg/mL; MIC50 (H. somni; Histophilus somni): 32 µg/mL (≈ 40.4 µM); MIC90 (H. somni; Histophilus somni): 32 µg/mL (≈ 40.4 µM); MIC50 (P. multocida): 16 µg/mL (≈ 20.2 µM); MIC90 (P. multocida): > 64 µg/mL; MIC (P. multocida; ATCC43137, read-out: Comparative MIC's, P. multocida ATCC 43137): 16 µg/mL (≈ 20.2 µM); MIC50 (M. haemolytica): > 64 µg/mL; MIC90 (M. haemolytica): > 64 µg/mL; MIC (M. haemolytica; ATCC33396, read-out: Comparative MIC's, M. haemolytica ATCC 33396): 32 µg/mL (≈ 40.4 µM); MIC (M. haemolytica; read-out: Comparative MIC's, M. haemolytica 12726): 32 µg/mL (≈ 40.4 µM); MIC (M. haemolytica; read-out: Comparative MIC's, M. haemolytica 46571*): 32 µg/mL (≈ 40.4 µM); Mouse survival (P. multocida 46572; positive control, 20 mg/kg, P. multocida challenge): 90-100%; lung lesions ([2]; 10 mg/kg, separate study, saline control 31%): 20%; MIC ([3]; read-out: MIC for the BRD bacterial strains tested / target pathogens): ≤ 64 µg/mL |
